The assay deals with T1, IKKβ (Homo sapiens, UniProt O14920).
T1 construct: purchased Upstate Biotechnology Inc. 14-485
T1 sequence (O14920 1-756): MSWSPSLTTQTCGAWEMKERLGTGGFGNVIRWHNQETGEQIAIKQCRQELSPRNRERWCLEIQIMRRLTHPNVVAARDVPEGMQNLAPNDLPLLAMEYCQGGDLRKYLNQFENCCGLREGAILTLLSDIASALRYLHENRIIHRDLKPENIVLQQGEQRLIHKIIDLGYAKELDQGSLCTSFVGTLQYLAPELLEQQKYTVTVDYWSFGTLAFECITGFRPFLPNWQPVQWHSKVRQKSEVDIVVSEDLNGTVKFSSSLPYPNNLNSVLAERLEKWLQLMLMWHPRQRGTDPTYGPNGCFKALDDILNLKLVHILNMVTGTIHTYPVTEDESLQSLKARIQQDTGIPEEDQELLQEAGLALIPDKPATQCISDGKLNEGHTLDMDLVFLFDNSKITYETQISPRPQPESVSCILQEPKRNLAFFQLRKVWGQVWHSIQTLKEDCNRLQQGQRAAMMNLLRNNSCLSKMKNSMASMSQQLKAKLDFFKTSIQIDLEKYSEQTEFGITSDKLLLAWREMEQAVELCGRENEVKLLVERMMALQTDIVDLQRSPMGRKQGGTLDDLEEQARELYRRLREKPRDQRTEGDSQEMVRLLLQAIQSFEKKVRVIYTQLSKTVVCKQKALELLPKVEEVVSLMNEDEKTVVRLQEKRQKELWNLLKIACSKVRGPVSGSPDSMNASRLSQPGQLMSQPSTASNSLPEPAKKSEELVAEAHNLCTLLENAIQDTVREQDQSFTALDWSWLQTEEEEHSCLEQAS
The experiment in a line: IKKβ inhibition assay by fluorescence polarization (IMAP kit). To be noted: test compound at 1 μM; inhibition rate exceeding 100% is indicated as 100%. In kind it is biochemical. The procedure:
In order to evaluate IKKβ inhibitory activity of the present compounds, an IKKβ inhibition assay by the fluorescence polarization method was conducted.
The assay was conducted using IMAP™ IKKβ assay kit (manufactured by Molecular Devices Corporation, catalogue No. R8115) or IMAP™ FP Screening Express kit (manufactured by Molecular Devices Corporation, catalogue No. R8127) and in accordance with the protocol attached to each kit. The specific methods are described below. (Preparation of Reagents)
1) Complete Reaction Buffer: a complete reaction buffer was so prepared as to obtain a final concentration of 10 mM Tris-HCL (pH 7.2), 10 mM magnesium chloride, 0.1% bovine serum albumin, and 1 mM dithiothreitol.
2) Substrate Working Solution: 400 nM of a substrate working solution was prepared by dissolving and diluting a fluorescein-labeled IKKβ substrate peptide (amino acid sequence: GRHDSGLDSMK) with the complete reaction buffer.
3) Enzyme Working Solution: 0.2 units/mL of an enzyme working solution was prepared by diluting IKKβ solution (manufactured by Upstate Biotechnology Inc., catalogue No. 14-485) with the complete reaction buffer.
4) ATP Working Solution: 8 μM of an ATP working solution was prepared by dissolving ATP into ultrapure water followed by diluting it with the complete reaction buffer.
5) IMAP binding solution: After diluting an IMAP binding buffer with ultrapure water, an IMAP binding solution was prepared by diluting an IMAP binding reagent with the diluted IMAP binding buffer.
A test compound was dissolved in dimethylsulfoxide followed by diluting it with the complete reaction buffer to prepare 4 μM of a test compound solution.
1) To a 384-well plate, the test compound solution, the enzyme working solution, the substrate working solution, and the ATP working solution were added in an amount of 5 μL per well.
2) Incubation was performed at a room temperature for 60 minutes under light shielding.
3) The IMAP binding solution was added in an amount of 60 μL per well.
4) Incubation was performed at a room temperature for 30 minutes under light shielding.
5) Fluorescence polarization value of each well was measured by using Analyst™ HT (multimode plate reader manufactured by Molecular Devices Corporation) and Criterion Host Software v2.00 (manufactured by Molecular Devices Corporation).
6) Operations were performed in the same manner as in 1) to 5) except for changing the test compound to 0.4% dimethylsulfoxide. The obtained result was designated as a control.
7) Operations were performed in the same manner as in 1) to 5) except for changing the test compound and the enzyme working solution to 0.4% dimethylsulfoxide and the complete reaction buffer, respectively. The obtained result was designated as a background.
An IKKβ inhibition rate (%) was calculated by the following equation.
IKKβ inhibition rate (%)=100×{1−(fluorescence polarization value of test compound−fluorescence polarization value of background)/(fluorescence polarization value of control−fluorescence polarization value of background)}
In general terms: Fluorescence polarisation rises when a labelled molecule tumbles more slowly, as on binding a larger partner.
What is called inhibition is the drop in the measured response relative to a control, in per cent. A high value points to strong suppression. The compound `NC(=O)Nc1[nH]c2cc(C#Cc3ccccc3)ccc2c1C(N)=O` [Compound 9-1, 2-Aminocarbonylamino-6-phenylethynylindole-3-carboxamide] yielded an inhibition at 1 µM of 87%.

`CS(=O)(=O)Nc1cccc(-c2ccc3c(C(N)=O)c(NC(N)=O)[nH]c3c2)c1` [Compound 4-17, 2-Aminocarbonylamino-6-(3-methylsulfonylaminophenyl)indole-3-carboxamide] returned an inhibition at 1 µM of 100%.

`COCCCc1ccc2c(C(N)=O)c(NC(N)=O)[nH]c2c1` [Compound 11-10, 2-Aminocarbonylamino-6-(3-methoxypropyl)indole-3-carboxamide] yielded an inhibition at 1 µM of 94%.

`CCc1ccc2c(C(N)=O)c(NC(N)=O)[nH]c2c1` [Compound 11-1, 2-Aminocarbonylamino-6-ethylindole-3-carboxamide] displayed an inhibition at 1 µM of 95%.

Regarding `NC(=O)Nc1[nH]c2cc(-c3ccoc3)ccc2c1C(N)=O` [Compound 4-22, 2-Aminocarbonylamino-6-(furan-3-yl)indole-3-carboxamide], 1 µM produced 100% inhibition.

The compound `NC(=O)Nc1[nH]c2cc(-c3ccc(CO)o3)ccc2c1C(N)=O` [Compound 12-2, 2-Aminocarbonylamino-6-(5-hydroxymethylfuran-2-yl) indole-3-carboxamide] gave an inhibition at 1 µM of 99%.

In turn, `CN(C)CC#Cc1ccc2c(C(N)=O)c(NC(N)=O)[nH]c2c1` [Compound 9-18, 2-Aminocarbonylamino-6-(3-dimethylamino-1-propynyl) indole-3-carboxamide] returned an inhibition at 1 µM of 94%.

Compound `NC(=O)Nc1[nH]c2cc(-c3cccc(CCO)c3)ccc2c1C(N)=O` [Compound 7-5] registered an inhibition at 1 µM of 97%.

`NC(=O)Nc1[nH]c2cc(NC(=O)Nc3ccccc3)ccc2c1C(N)=O` [Compound 2-3, 2-Aminocarbonylamino-6-(3-phenylureido)indole-3-carboxamide] had an inhibition at 1 µM of 56%.

On to `NC(=O)Nc1[nH]c2cc(-c3ccc(CNC4CC4)o3)ccc2c1C(N)=O` [Compound 13-15, 2-Aminocarbonylamino-6-(5-cyclopropylaminomethylfuran-2-yl)indole-3-carboxamide], for which 1 µM produced 100% inhibition.

Turning to `NC(=O)Nc1[nH]c2cc(-c3ccco3)ccc2c1C(N)=O` [Compound 4-19, 2-Aminocarbonylamino-6-(furan-2-yl)indole-3-carboxamide], testing at 1 µM gave an inhibition of 100%.

`COc1cccc(-c2ccc3c(C(N)=O)c(NC(N)=O)[nH]c3c2)c1` [Compound 4-4, 2-Aminocarbonylamino-6-(3-methoxyphenyl)indole-3-carboxamide] displayed an inhibition at 1 µM of 98%.

The compound `NC(=O)Nc1[nH]c2cc(C(=O)N3CCCC3)ccc2c1C(N)=O` [Compound 22-2] registered an inhibition at 1 µM of 70%.

As to `NC(=O)Nc1[nH]c2cc(NC(=O)c3ccccc3)ccc2c1C(N)=O` [Compound 2-2, 2-Aminocarbonylamino-6-benzoylaminoindole-3-carboxamide], the inhibition at 1 µM came to 49%.

As for `CC(C)(N)c1ccc(-c2ccc3c(C(N)=O)c(NC(N)=O)[nH]c3c2)cc1` [Compound 8-6], testing at 1 µM gave an inhibition of 99%.

For the compound `N#Cc1cccc(-c2ccc3c(C(N)=O)c(NC(N)=O)[nH]c3c2)c1` [Compound 4-15, 2-Aminocarbonylamino-6-(3-cyanophenyl)indole-3-carboxamide], at 1 µM the inhibition was 100%.

For the compound `NC(=O)Nc1[nH]c2cc(Br)ccc2c1C(N)=O` [Compound 3-1, 2-Aminocarbonylamino-6-bromoindole-3-carboxamide], at 1 µM the inhibition was 100%.

For the compound `CN(C)c1ccc(-c2ccc3c(C(N)=O)c(NC(N)=O)[nH]c3c2)cc1` [Compound 4-78, 2-Aminocarbonylamino-6-(4-dimethylaminophenyl)indole-3-carboxamide], the inhibition at 1 µM came to 95%.

Consider `COC(=O)c1ccc2c(C(N)=O)c(NC(N)=O)[nH]c2c1` [Compound 2-17, 2-aminocarbonylamino-6-methoxycarbonylindole-3-carboxamide], for which the inhibition at 1 µM worked out at 100%.

Regarding `CN(C)CCCc1ccc2c(C(N)=O)c(NC(N)=O)[nH]c2c1` [Compound 11-8, 2-Aminocarbonylamino-6-(3-dimethylaminopropyl) indole-3-carboxamide], the inhibition at 1 µM worked out at 95%.

Consider `COC/C=C/c1ccc2c(C(N)=O)c(NC(N)=O)[nH]c2c1` [Compound 4-58, 2-Aminocarbonylamino-6-[(E)-3-methoxy-1-propenyl]indole-3-carboxamide], for which the inhibition at 1 µM came out at 99%.

Turning to `NC(=O)Nc1[nH]c2cc(-c3ccc(F)cc3)ccc2c1C(N)=O` [Compound 4-1, 2-Aminocarbonylamino-6-(4-fluorophenyl)indole-3-carboxamide], the inhibition at 1 µM came out at 97%.

The compound `C=Cc1ccc2c(C(N)=O)c(NC(N)=O)[nH]c2c1` [Compound 4-38, 2-Aminocarbonylamino-6-vinylindole-3-carboxamide] registered an inhibition at 1 µM of 100%.

Compound `CNCc1ccc(-c2ccc3c(C(N)=O)c(NC(N)=O)[nH]c3c2)s1` [Compound 13-24, 2-Aminocarbonylamino-6-(5-methylaminomethylthiophen-2-yl)indole-3-carboxamide] showed an inhibition at 1 µM of 98%.

On to `CC(N)c1ccc(-c2ccc3c(C(N)=O)c(NC(N)=O)[nH]c3c2)cc1` (centres unmarked) [Compound 8-5], for which the inhibition at 1 µM is 100%.

`NC(=O)Nc1[nH]c2cc(C3CCCCC3)ccc2c1C(N)=O` [Compound 11-4, 2-Aminocarbonylamino-6-cyclohexylindole-3-carboxamide] returned an inhibition at 1 µM of 100%.

`CC(=O)Nc1ccc2c(C(N)=O)c(NC(N)=O)[nH]c2c1` [Compound 2-1, 6-Acetylamino-2-aminocarbonylaminoindole-3-carboxamide] showed an inhibition at 1 µM of 80%.

In the case of `Cc1c(Br)ccc2c(C(N)=O)c(NC(N)=O)[nH]c12` [Compound 2-11, 2-Aminocarbonylamino-6-bromo-7-methylindole-3-carboxamide], the inhibition at 1 µM worked out at 96%.

As to `NC(=O)Nc1[nH]c2cc(-c3ccccc3F)ccc2c1C(N)=O` [Compound 4-10, 2-Aminocarbonylamino-6-(2-fluorophenyl)indole-3-carboxamide], 1 µM produced 100% inhibition.

The record behind these values is patent US8193237B2, “Indole derivative having IκB kinase β inhibitory activity” (Santen Pharmaceutical Co., Ltd., priority 2007, dated 2012).
